Experiments:
KRAS G12C = KRAS G12C (Homo sapiens, UniProt P01116, G12C); experiment: Cell Activity Assay: accumulation of GDP-bound KRAS G12C in MIAPaCa-2 cells (Raf-1 RBD capture, MSD readout); type: cell-based; set-up: endogenous in cells; host or cells: MIAPaCa-2; conditions: 6 hours, assay limit is 30.00
How it was run: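 IC50 came from a 4-parameter fit of Ras signal normalized between DMSO and full-inhibition controls. Readout: lysate GTP-Ras bound to immobilized Raf-1 RBD, quantified with pan-Ras antibody and MSD electrochemiluminescence. Lysates derived from MIAPaCa-2 cells treated 6 h with serially diluted compound, 0.3% DMSO.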

[1] = target: T1, GDP-loaded KRAS (1-169) G12C, C51S, C80L, C118S (Homo sapiens, UniProt P01116, C118S/C51S/C80L/G12C); experiment: Mass Spectrometry Reactivity Assay (MSRA): covalent adduct of compound and KRAS G12C, Percent Modification; type: binding; conditions: for MSRA (% modification) 5.0 μM 0.25 hr / MSRA (% modification) 5.0 μM 0.017 hr: 5.0 μM compound; for MSRA (% modification) 10 μM 0.50 hr / MSRA (% modification) 10 μM 0.25 hr: 10 μM compound
T1 construct: GDP-loaded KRAS (1-169) G12C, C51S, C80L, C118S
How it was run: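 Covalent labelling is measured by intact mass: deconvoluted modified and unmodified peak intensities yield percent modification. Compound, usually 5 μM or 10 μM final, reacts at room temperature with 5 μM GDP-bound KRAS G12C (1-169, C51S/C80L/C118S) in Hepes pH 7.5/NaCl/glycerol, sampled at 1, 15, 30, 60 min.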

Compound | IC50 (KRAS G12C) [µM] | MSRA (% modification) 5.0 μM 0.25 hr [1] [%] | MSRA (% modification) 10 μM 0.50 hr [1] [%] | MSRA (% modification) 10 μM 0.25 hr [1] [%] | MSRA (% modification) 5.0 μM 0.017 hr [1] [%]
C=CC(=O)N1CCN(c2nc(O[C@H]3CN(C)C[C@@H]3OC)nc3c(Oc4c(Cl)c(F)cc5[nH]ncc45)nccc23)CC1 [Example 11I, 1-[4-(8-[(5-chloro-6-fluoro-1H-indazol-4-yl)oxy]-2-{[(3S,4S)-4-methoxy-1-methyl-pyrrolidin-3-yl]oxy}pyrido [3,4-d]pyrimidin-4-yl)piperazin-1-yl]prop-2-en-1-one] | 0.321 | 32 | – | – | –
C=CC(=O)N1CCN(c2ncnc3c(Oc4c(C)ccc5[nH]ncc45)nccc23)CC1 [Example 01A, 1-(4-{8-[(5-methyl-1H-indazol-4-yl)oxy]pyrido[3,4-d]pyrimidin-4-yl}piperazin-1-yl)prop-2-en-1-one] | 11.8 | – | 11 | – | –
C=CC(=O)N1CCN(c2ncnc3c(Oc4c(Cl)c(F)cc5[nH]ncc45)nc(Cl)cc23)[C@@H](C)C1 [Example 39A, 1-[(3S)-4-{6-chloro-8-[(5-chloro-6-fluoro-1H-indazol-4-yl)oxy]pyrido[3,4-d]pyrimidin-4-yl}-3-methylpiperazin-1-yl]prop-2-en-1-one] | 0.246 | – | – | 74 | –
C=CC(=O)N1CCN(c2ncnc3c(Oc4c(Br)c(C)cc5[nH]ncc45)nccc23)CC1 [Example 13A, 1-(4-{8-[(5-bromo-6-methyl-1H-indazol-4-yl)oxy]pyrido[3,4-d]pyrimidin-4-yl}piperazin-1-yl)prop-2-en-1-one] | 0.394 | – | 69 | 44 | –
C=CC(=O)N1CCN(c2ncnc3c(Oc4c(Cl)ccc5[nH]ncc45)cccc23)C[C@@H]1C [Example 07C, 1-[(2S)-4-{8-[(5-chloro-1H-indazol-4-yl)oxy]quinazolin-4-yl}-2-methylpiperazin-1-yl]prop-2-en-1-one] | 5.67 | – | 15 | – | –
C=CC(=O)N1CCN(c2ncnc3c(Oc4c(C)ccc5[nH]nc(Cl)c45)nccc23)CC1 [Example 16C, 1-(4-{8-[(3-chloro-5-methyl-1H-indazol-4-yl)oxy]pyrido[3,4-d]pyrimidin-4-yl}piperazin-1-yl)prop-2-en-1-one] | 22.2 | – | 7 | – | –
C=CC(=O)N1CCN(c2nc(NC3CNC(=O)C3)nc3c(Oc4c(C)ccc5[nH]ncc45)cccc23)CC1 (centres unmarked) [Example 15F, 4-({4-(4-acryloylpiperazin-1-yl)-8-[(5-methyl-1H-indazol-4-yl)oxy]quinazolin-2-yl}amino)pyrrolidin-2-one] | > 30 | – | 13 | – | –
C=CC(=O)N1CCN(c2nc(O[C@@H]3CN(C)C[C@H]3OC)nc3c(Oc4c(Cl)c(F)cc5[nH]ncc45)nccc23)[C@H](C)C1 [Example 34I, 1-[(3R)-4-(8-[(5-chloro-6-fluoro-1H-indazol-4-yl)oxy]-2-{[(3R,4R)-4-methoxy-1-methyl-pyrrolidin-3-yl]oxy}pyrido [3,4-d]pyrimidin-4-yl)-3-methyl-piperazin-1-yl]prop-2-en-1-one] | 0.935 | – | – | – | 52
C=CC(=O)N1CCN(c2nc(O[C@@H]3CN(C)C[C@H]3OC)nc3c(Oc4c(Cl)c(Cl)cc5[nH]ncc45)nc(Cl)cc23)CC1 [Example 29G, 1-[4-(6-chloro-8-[(5,6-dichloro-1H-indazol-4-yl)oxy]-2-{[(3R,4R)-4-methoxy-1-methylpyrrolidin-3-yl]oxy}pyrido[3,4-d]pyrimidin-4-yl)piperazin-1-yl]prop-2-en-1-one] | 0.005 | – | – | – | 82
C=CC(=O)N1CCN(c2ncnc3c(Oc4c(Cl)c(F)cc5[nH]ncc45)nc(N)cc23)CC1 [Example 41A, 1-(4-{6-amino-8-[(5-chloro-6-fluoro-1H-indazol-4-yl)oxy]pyrido[3,4-d]pyrimidin-4-yl}piperazin-1-yl)prop-2-en-1-one] | 3.5 | – | – | 31 | –
C=CC(=O)N1CCN(c2nc(OC[C@]3(F)CCCN(C)C3)nc3c(Oc4c(Cl)c(F)cc5[nH]ncc45)nccc23)CC1 [Example 02I, 1-[4-(8-[(5-chloro-6-fluoro-1H-indazol-4-yl)oxy]-2-{[(3S)-3-fluoro-1-methylpiperidin-3-yl]methoxy}pyrido[3,4-d]pyrimidin-4-yl)piperazin-1-yl]prop-2-en-1-one] | 0.049 | 81 | – | – | –
C=CC(=O)N1CCN(c2nc(N3CC(CN(C)C)C3)nc3c(Oc4c(C)ccc5[nH]ncc45)cccc23)CC1 [Example 10E, 1-[4-(2-{3-[(dimethylamino)methyl]azetidin-1-yl}-8-[(5-methyl-1H-indazol-4-yl)oxy]quinazolin-4-yl)piperazin-1-yl]prop-2-en-1-one] | 2.32 | – | 21 | – | –
C=CC(=O)N1CCN(c2nc(NCC3CCC(=O)N3)nc3c(Oc4c(C)ccc5[nH]ncc45)cccc23)CC1 (centres unmarked) [Example 12F, 5-[({4-(4-acryloylpiperazin-1-yl)-8-[(5-methyl-1H-indazol-4-yl)oxy]quinazolin-2-yl}amino)methyl]pyrrolidin-2-one] | 29.1 | – | 20 | – | –
C=CC(=O)N1CCN(c2nc(O[C@@H]3CN(C)C[C@H]3OC)nc3c(Oc4c(Cl)c(Cl)cc5[nH]ncc45)nccc23)CC1 [Example 19H, 1-[4-(8-[(5,6-dichloro-1H-indazol-4-yl)oxy]-2-{[(3R,4R)-4-methoxy-1-methylpyrrolidin-3-yl]oxy}pyrido[3,4-d]pyrimidin-4-yl)piperazin-1-yl]prop-2-en-1-one] | 0.004 | – | – | – | 66
C=CC(=O)N1CCN(c2nc(O[C@@H]3CN(C)C[C@H]3C3CC3)nc3c(Oc4c(Cl)c(F)cc5[nH]ncc45)nccc23)CC1 (racemic) [Example 39I, rac-1-[4-(8-[(5-chloro-6-fluoro-1H-indazol-4-yl)oxy]-2-{[(3S,4R)-4-cyclo-propyl-1-methyl-pyrrolidin-3-yl]oxy}pyrido [3,4-d]pyrimidin-4-yl)piperazin-1-yl]prop-2-en-1-one] | 0.083 | – | – | – | 31
C=CC(=O)N1CCN(c2nc(NCc3nncn3C)nc3c(Oc4c(C)ccc5[nH]ncc45)cccc23)CC1 [Example 02F, 1-[4-(8-[(5-methyl-1H-indazol-4-yl)oxy]-2-{[(4-methyl-4H-1,2,4-triazol-3-yl)methyl]amino}quinazolin-4-yl)piperazin-1-yl]prop-2-en-1-one] | > 30 | – | 14 | – | –
C=CC(=O)N1CCN(c2nc(OCCN(C)C)nc3c(Oc4c(Cl)c(C)cc5[nH]ncc45)cc(Cl)cc23)CC1 [Example 13E, 1-(4-{6-chloro-8-[(5-chloro-6-methyl-1H-indazol-4-yl)oxy]-2-[2-(dimethylamino)ethoxy]quinazolin-4-yl}piperazin-1-yl)prop-2-en-1-one] | 0.452 | – | 79 | 75 | –
C=CC(=O)N1CCN(c2nc(OCC3CCCCN3C)nc3c(Oc4c(C)ccc5[nH]ncc45)cccc23)CC1 (centres unmarked) [Example 21F, 1-(4-{8-[(5-methyl-1H-indazol-4-yl)oxy]-2-[(1-methylpiperidin-2-yl)methoxy]quinazolin-4-yl}piperazin-1-yl)prop-2-en-1-one] | 0.283 | 61 | – | – | –
C=CC(=O)N1CCN(c2nc(OC[C@@H]3CCCN3C)nc3c(Oc4c(Cl)c(F)cc5[nH]ncc45)nc(Cl)cc23)C[C@@H]1C [Example 07G, 1-[(2S)-4-(6-chloro-8-[(5-chloro-6-fluoro-1H-indazol-4-yl)oxy]-2-{[(2S)-1-methylpyrrolidin-2-yl]methoxy}pyrido[3,4-d]pyrimidin-4-yl)-2-methylpiperazin-1-yl]prop-2-en-1-one] | 0.404 | – | – | 77 | –
C=CC(=O)N1CCN(c2nc(OC[C@@H]3CCCN3C)nc3c(Oc4c(Cl)c(C)cc5[nH]ncc45)nccc23)CC1 [Example 09H, 1-[4-(8-[(5-chloro-6-methyl-1H-indazol-4-yl)oxy]-2-{[(2S)-1-methylpyrrolidin-2-yl]methoxy}pyrido[3,4-d]pyrimidin-4-yl)piperazin-1-yl]prop-2-en-1-one] | 0.239 | 78 | 83 | 81 | –
C=CC(=O)N1CCN(c2nc(O[C@@H]3CN(C)C[C@H]3OC)nc3c(Oc4c(C)ccc5[nH]ncc45)nccc23)CC1 [Example 28I] | 1 | – | – | – | 11
C=CC(=O)N1C[C@H](C)N(c2nc(N3CC(N(C)C)C3)nc3c(Oc4c(C)ccc5[nH]ncc45)nc(C)cc23)C[C@H]1C [Example 06B, 1-[(2R,5S)-4-{2-[3-(Dimethylamino)azetidin-1-yl]-6-methyl-8-[(5-methyl-1H-indazol-4-yl)oxy]pyrido[3,4-d]pyrimidin-4-yl}-2,5-dimethylpiperazin-1-yl]prop-2-en-1-one] | > 30 | – | 9 | – | –
C=CC(=O)N1CCN(c2nc(O[C@@H]3CN(C)C[C@H]3OCC)nc3c(Oc4c(Cl)c(F)cc5[nH]ncc45)nc(Cl)cc23)CC1 [Example 27G, 1-[4-(6-chloro-8-[(5-chloro-6-fluoro-1H-indazol-4-yl)oxy]-2-{[(3R,4R)-4-ethoxy-1-methylpyrrolidin-3-yl]oxy}pyrido[3,4-d]pyrimidin-4-yl)piperazin-1-yl]prop-2-en-1-one] | 0.029 | – | – | – | 67

Source: US10662204B2 (PFIZER INC., priority 2018, dated 2020)
